{"source": "patent US20160214941A1", "about": "“Compounds for lnhibition of Unregulated Cell Growth” (GODAVARI BIOREFINERIES LIMITED, priority 2013, published 2016)", "assay_type_in_all_cases": "cell-based", "key": {"MDA MB 231 cell line": {"tested_on": "MDA MB 231 cell line", "test": "In vitro 3D sphere forming stem cell assay", "protocol": "In Vitro 3D Sphere Forming Stem Cell Assay Compounds of Formula III & IV were evaluated in an in vitro 3D sphere forming stem cell assay as described by Rajasekhar, V K, Analytical Methods for Cancer Stem Cells. Methods in Molecular Biology, 2007, Volume 407, 83-95.\nAn exemplary procedure for the in vitro 3D sphere forming stem cell assay is described as follows. Breast Cancer Cells were grown in two dimensions on a plastic substrate, harvested in suspension in serum-free media, then the cells in the sample were trypsinized and a single cell suspension was formed by passing through a cell strainer. The cells were diluted according to the predetermined plating efficiency for the cell line being studied by suspending the cells in stem cell culture medium. 100 uL of this suspension was added into each well of a 96 well suspension plate, and the plate was incubated at 37° C. in 5% CO2 atmosphere for 24 hours, then 2 uL of appropriate concentrations of the drugs was added into each respective well along with 100 uL of stem cell culture medium, and the plates incubated at 37° C. under 5% CO2 atmosphere for 72 hours. 2.5 uL of the appropriate drug concentration (Formula III and Formula IV) of was then added to each respective well along with 50 uL of stem cell culture medium, then the plates incubated at 37° C. under 5% CO2 atmosphere for 72 hours. 3 uL of the appropriate drug concentration was added to each respective well along with 50 uL of stem cell culture medium, then incubated at 37° C. under 5% CO2 atmosphere for 72 hours, the spheres formed were observed under a microscope then counted and scored by size.\nThe number in each box is the total number of spheres formed in the presence of either cisplatin, compound of Formula III or compound of Formula IV at each drug concentration. GC refers to a growth control performed in the absence of drug or solvent (DMSO). GCD refers to a growth control performed in the absence of drug, but in the presence of DMSO."}, "NCIH23": {"tested_on": "NCIH23", "test": "In vitro colorimetric cell death assay (MTT assay)", "settings": "NCIH23 (lung cancer), 48 hours", "protocol": "(§1) MTT assay was carried for assessing cell viability where the cells were grown in two-dimensional surface. The procedure for the assay is as follows. Cancer cells were plated in 96 well plates as per predetermined plating efficiency. The plates were incubated for 24 hours in a 5% CO2 atmosphere at 37° C., a range of concentrations of the compound of the present invention was added to the wells, the plates were incubated further for 48 hours in a 5% CO2 atmosphere, the plates were centrifuged twice at 3000 rpm for 3 minutes, the supernatant fluid was discarded, 100 uL of 0.5 mg/mL MIT solution was added and the plates were incubated for 4 hours in a 5% CO2 atmosphere at 37° C. The plates were then centrifuged twice at 3000 rpm for 3 minutes, supernatant was aspirated very carefully, 200 uL DMSO was added to each well to solubilize MTT crystals and mixed well by shaking the plates, the plates were incubated for 10 minutes in a 5% CO2 atmosphere at 37° C., the plates were placed on the shaker of an ELISA plate reader and the absorbance at 570 nm was measured, then the percentage of viable cells remaining was calculated by first subtracting the background absorbance then comparing to the absorbance of a non-drug-treated cell sample, and the results were plotted on a graph to determine the IC50 for the compound as known in the art. The reference drug used was Cisplatin."}, "HCT-15 [1]": {"tested_on": "HCT-15", "test": "In vitro colorimetric cell death assay (MTT assay)", "settings": "HCT-15 (colon cancer), 48 hours", "protocol": "as §1"}, "Hep3B": {"tested_on": "Hep3B", "test": "In vitro colorimetric cell death assay (MTT assay)", "settings": "Hep3B (hepatic cancer), 48 hours", "protocol": "as §1"}, "T47D [2]": {"tested_on": "T47D", "test": "In vitro colorimetric cell death assay (MTT assay)", "settings": "T47D (breast cancer), 48 hours", "protocol": "as §1"}, "LnCaP [3]": {"tested_on": "LnCaP", "test": "In vitro colorimetric cell death assay (MTT assay)", "settings": "LnCaP (prostate cancer), 48 hours", "protocol": "as §1"}, "Colo205": {"tested_on": "Colo205", "test": "In vitro colorimetric cell death assay (MTT assay)", "settings": "Colo205 (colon cancer), 48 hours", "protocol": "as §1"}, "L929 [4]": {"tested_on": "L929", "test": "In vitro colorimetric cell death assay (MTT assay)", "settings": "L929 (fibroblast), 48 hours", "protocol": "as §1"}, "Colo320": {"tested_on": "Colo320", "test": "In vitro colorimetric cell death assay (MTT assay)", "settings": "Colo320 (colon cancer), 48 hours", "protocol": "as §1"}, "SiHa [5]": {"tested_on": "SiHa", "test": "In vitro colorimetric cell death assay (MTT assay)", "settings": "SiHa (cervical cancer), 48 hours", "protocol": "as §1"}, "[6]": {"tested_on": "PC3 (Prostrate Cancer) cells", "test": "CD44 and CD24 expression on PC3 cells by Flow Cytometry", "settings": "48 hours", "protocol": "A study was conducted to determine the effect of compound of Formula IV and Cisplatin on CD44 and CD24 expression on PC3 (Prostrate Cancer) cells by Flow Cytometry. PC3 cells (0.35×106) were cultured in R.P.M.I (Roswell Park Memorial Institute Medium)-1640 cell culture medium with 10% F.B.S (Fetal Bovine Serum) on 60 mm TC (Tissue Culture) plates. Cells were exposed to IC10 drug concentration of Cisplatin & IC10 drug concentration of compound of Formula IV in duplicates. Similarly other sets were exposed to IC25 drug concentration of Cisplatin & compound of Formula IV in duplicates. IC10 and IC25 drug concentrations were calculated as per MTT results. All the sets were incubated at 37° C., 5% CO2 for 48 hours. After 48 hours, cells were observed under the microscope. Cells were trypsinised, washed with D.P.B.S. (Dulbecco's Phosphate Buffered Saline) and 50 μL of cells were taken for each set and 5 μL of each of CD24 and CD44 antibodies were added. CD24-FITC (Fluorescein isothiocyanate) labeled & CD44-PE (Phycoerythrin) labeled was used for the study. The sets were incubated for 45 minutes at 4° C. in dark for proper binding of antibodies. After incubation the cells were washed with 200 μL of D.P.B.S., supernatant was discarded and the cells were finally suspended in 300 μL of FACS buffer (4% F.B.S in D.P.B.S.). […]"}, "HCT-15 [7]": {"tested_on": "HCT-15", "test": "In vitro soft agar colony forming growth assay", "settings": "HCT-15, one week", "protocol": "(§2) Compounds of Formula IV were evaluated in an in vitro soft agar colony forming growth inhibition assay as described by Lieber, M M, and Kovach, J S. Soft agar colony formation assay for chemotherapeutic sensitivity of human solid tumors. Mayo Clin Proc 1982; 57: 527-528 and Tanigawa, N, Kern, D H, Kikasa, Y, and Morton, D L. Rapid assay for evaluating the chemosensitivity of human tumors in soft agar culture. Cancer Res 1982; 42: 2159-2164.\n(§3) An exemplary procedure for the in vitro soft agar colony forming growth inhibition assay is as follows."}, "T47D [8]": {"tested_on": "T47D", "test": "In vitro soft agar colony forming growth assay", "settings": "one week", "protocol": "as §2, §3"}, "LnCaP [9]": {"tested_on": "LnCaP", "test": "In vitro soft agar colony forming growth assay", "settings": "one week", "protocol": "as §2, §3"}, "PC3": {"tested_on": "PC3", "test": "In vitro soft agar colony forming growth assay", "settings": "PC3, one week", "protocol": "as §2, §3"}, "DU145": {"tested_on": "DU145", "test": "In vitro soft agar colony forming growth assay", "settings": "DU145, one week", "protocol": "as §2, §3"}, "L929 [10]": {"tested_on": "L929", "test": "In vitro soft agar colony forming growth assay", "settings": "L929, one week", "protocol": "as §2, §3"}, "SiHa [11]": {"tested_on": "SiHa", "test": "In vitro soft agar colony forming growth assay", "settings": "one week", "protocol": "as §2, §3"}}}
{"compound": "N.N.[Cl][Pt][Cl]", "note": "[Cisplatin]", "values": [{"measurement": "# of 3D Spheres Formed (±SD)", "setting": "MDA MB 231 cell line; MDAMB 231, 1.1 uM", "value": "35(±4)"}, {"measurement": "# of 3D Spheres Formed (±SD)", "setting": "MDA MB 231 cell line; MDAMB 231, 11 uM", "value": "24(±2)"}, {"measurement": "# of 3D Spheres Formed (±SD)", "setting": "MDA MB 231 cell line; MDAMB 231, 110 uM", "value": "16(±2)"}, {"measurement": "IC50", "setting": "NCIH23", "value": 45.7, "unit": "µM"}, {"measurement": "IC50", "setting": "HCT-15 [1]", "value": 49.1, "unit": "µM"}, {"measurement": "IC50", "setting": "Hep3B", "value": 37.6, "unit": "µM"}, {"measurement": "IC50", "setting": "T47D [2]", "value": 95.5, "unit": "µM"}, {"measurement": "IC50", "setting": "LnCaP [3]", "value": 38.4, "unit": "µM"}, {"measurement": "IC50", "setting": "Colo205", "value": 44.3, "unit": "µM"}, {"measurement": "IC50", "setting": "L929 [4]", "value": 38, "unit": "µM"}, {"measurement": "IC50", "setting": "Colo320", "value": 38.3, "unit": "µM"}, {"measurement": "IC50", "setting": "SiHa [5]", "value": 43.2, "unit": "µM"}, {"measurement": "effect on cell / CD44 population", "setting": "[6]; IC10 drug concentration", "value": "most of the cells remain unaffected"}, {"measurement": "effect on CD44 cell population", "setting": "[6]; IC25 drug concentration", "value": "good number of CD44 cell population surviving"}, {"measurement": "IC50", "setting": "HCT-15 [7]", "value": 40, "unit": "µM"}, {"measurement": "IC50", "setting": "T47D [8]", "value": 39.8, "unit": "µM"}, {"measurement": "IC50", "setting": "LnCaP [9]", "value": 31.6, "unit": "µM"}, {"measurement": "IC50", "setting": "PC3", "value": 52.5, "unit": "µM"}, {"measurement": "IC50", "setting": "DU145", "value": 33.1, "unit": "µM"}, {"measurement": "IC50", "setting": "L929 [10]", "value": 9.44, "unit": "µM"}, {"measurement": "IC50", "setting": "SiHa [11]", "value": 19.5, "unit": "µM"}]}
{"compound": "COc1ccc(/C=C/C(=O)c2cccc(Nc3c4ccc(Cl)cc4nc4ccc(OC)cc34)c2)cc1", "note": "[Formula III, 1-(3-(6-chloro-2-methoxyacridin-9-ylamino)phenyl)-3-(4-methoxyphenyl)prop-2-en-1-one]", "values": [{"measurement": "sphere reduction as compared to standard drug Cisplatin", "setting": "MDA MB 231 cell line; MDA MB 231", "value": "Significant sphere reduction"}, {"measurement": "# of 3D Spheres Formed (±SD)", "setting": "MDA MB 231 cell line; MDAMB 231, 1.1 uM", "value": "15(±2)"}, {"measurement": "# of 3D Spheres Formed (±SD)", "setting": "MDA MB 231 cell line; MDAMB 231, 11 uM", "value": "0(±0)"}, {"measurement": "# of 3D Spheres Formed (±SD)", "setting": "MDA MB 231 cell line; MDAMB 231, 110 uM", "value": "0(±0)"}]}
